In patent US20110263697A1, “Methods of Reducing Oxidative Modification of a Muscle Cell Protein” (STOKELY-VAN CAMP, INC., priority 2010, published 2011):

System: myosin heavy chain (MHC) protein in C2C12 myotubes
Assay: Muscle cell assay: oxidative modification of myosin heavy chain protein after electrical pulse stimulation (OXYBLOT)
Type: cell-based, Mouse
Protocol: Mouse C2C12 myoblasts were purchased from American Type Culture Collection (ATCC; Manassas, Va.) and grown to 90% confluence in high glucose Dubecco's Modified Eagle media (DMEM) with 10% fetal bovine serum (FBS). Myoblasts from the purchased lot were grown in T75 flasks and passaged >5 times prior to plating in collagen coated six-well plates for experimentation. To induce myotube differentiation FBS was replaced with 2% horse serum for 5 days. Myoblasts were grown and myotubes were maintained without antibiotics in a 37° C., 5% CO2 incubator. Western blot analysis for myosin heavy chain (MHC) protein indicated expression by day five with maintenance of steady state protein levels through day eight of differentiation. Electrical pulsing was applied to the myotubes using a C-Pace EP Cell Culture Stimulator (IonOptix; Milton, Mass.). Cells were stimulated to visibly and repetitively contract for 90 minutes at a pulse frequency of 0.5 Hz and a pulse duration of 24 ms. Immediately prior to stimulation, day old media was removed and replaced with 5 ml of fresh differentiation media. Myotubes were lysed and proteins were derivatized to 2,4-dinitrophenylhydrazone (DNP; OXYBLOT method). […] Protein bands were visualized and quantified with a Bio-Rad Chemidoc XRS system. […]

In the case of `Cc1c(C)c2c(c(C)c1O)CCC(C)(C(=O)O)O2` (centres unmarked) [TROLOX, 6-hydroxy-2,5,7,8-tetramethylchroman-2-carboxylic acid], the “Oxidative modification of MHC protein reduced (% of EPS alone)” value (1 mM TROLOX pre-treatment approx. 18 h prior and again immediately before EPS, 90 min EPS at 0.5 Hz, 24 ms, five independent experiments, FIG. 4) is reported as 42±15% and the “Oxidative modification of myosin heavy chain protein compared to electrical pulse stimulation alone (FIG. 4)” value (incubated with 1 mM TROLOX and subjected to electrical pulse stimulation) is reported as “reduced oxidative modification”.
